Converted amounts (≈) assume the structure as drawn. The source made the active and inactive calls. The calls are words filed in the database; no cut-off is given here.
Key:
[1] = Half life in rat; format: ADME, organism-based; conditions: in vivo
[2] = Inhibition of neuronal nicotinic receptor at 10 uM
[3] = target: Phospholipase A2 (Homo sapiens) (UniProt P04054); assay: Inhibition of PLA2 at 10 uM
Homo sapiens = species: Homo sapiens; assay: Inhibition of human Y receptor at 10 uM
[4] = target: Somatostatin receptor (Homo sapiens) (UniProt P35346+P30874+P31391+P30872+P32745); assay: Inhibition of sst receptor at 10 uM; format: protein assay
[5] = target: Substance-P receptor (Homo sapiens) (UniProt P25103); assay: Inhibition of human NK1 receptor at 10 uM
[6] = Aqueous solubility at pH 1; format: physicochemical; conditions: buffer
[7] = target: D(1A) dopamine receptor (Homo sapiens) (UniProt P21728); assay: Inhibition of human D1 receptor at 10 uM
[8] = target: Prostaglandin G/H synthase 1 (Homo sapiens) (UniProt P23219); assay: Inhibition of COX1 at 10 uM
[9] = target: T1, GABA-A receptor; anion channel (Homo sapiens) (UniProt P14867+P47870+P18507+P28472+P48169+Q99928+Q9UN88+P34903+O00591+O14764+Q8N1C3+P18505+P78334+P47869+P31644+Q16445); assay: Inhibition of human GABA receptor at 10 uM; format: protein-complex assay
Rattus norvegicus = species: Rattus norvegicus; assay: Stability in rat liver S9 fraction; format: ADME
[10] = target: B2 bradykinin receptor (Homo sapiens) (UniProt P30411); assay: Inhibition of human B2 receptor at 10 uM
[11] = target: T1, GABA-A receptor; anion channel (Homo sapiens); assay: Inhibition of central BZD receptor at 10 uM; format: protein-complex assay
[12] = target: Nociceptin receptor (Homo sapiens) (UniProt P41146); assay: Inhibition of human ORL1 at 10 uM
[13] = target: Muscarinic acetylcholine receptor (Homo sapiens) (UniProt P20309+P08173+P11229+P08172+P08912); assay: Inhibition of human M receptor at 10 uM; format: protein assay
[14] = target: Melanocortin receptor 4 (Homo sapiens) (UniProt P32245); assay: Inhibition of human MC4 receptor at 10 uM
[15] = target: Polyunsaturated fatty acid lipoxygenase ALOX12 (Homo sapiens) (UniProt P18054); assay: Inhibition of 12-LO at 10 uM
[16] = target: Cholecystokinin receptor type A (Homo sapiens) (UniProt P32238); assay: Inhibition of human CCKA receptor at 10 uM
[17] = target: Prostaglandin D2 receptor (Homo sapiens, UniProt Q13258); assay: Inhibition of DP1
[18] = target: Sigma non-opioid intracellular receptor 1 (Homo sapiens) (UniProt Q99720); assay: Inhibition of sigma receptor at 10 uM
[19] = Bioavailability in rat; format: ADME, organism-based; conditions: in vivo
Mus musculus = assay: Inhibition of peribronchial eosinophilia in BALB/c mouse at 5 mg/kg, po relative to control; format: functional, organism-based; set-up: dose 5 mg/kg
[20] = Distribution coefficient, log D at pH 7.4; format: physicochemical; conditions: octanol/water

Chain of Phospholipase A2 (Homo sapiens) (P04054 23-148 limits assumed): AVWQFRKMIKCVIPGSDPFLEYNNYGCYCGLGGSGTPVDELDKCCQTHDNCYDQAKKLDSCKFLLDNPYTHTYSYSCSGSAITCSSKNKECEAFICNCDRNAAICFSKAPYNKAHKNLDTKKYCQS
Chain of Sigma non-opioid intracellular receptor 1 (Homo sapiens) (Q99720 whole entry): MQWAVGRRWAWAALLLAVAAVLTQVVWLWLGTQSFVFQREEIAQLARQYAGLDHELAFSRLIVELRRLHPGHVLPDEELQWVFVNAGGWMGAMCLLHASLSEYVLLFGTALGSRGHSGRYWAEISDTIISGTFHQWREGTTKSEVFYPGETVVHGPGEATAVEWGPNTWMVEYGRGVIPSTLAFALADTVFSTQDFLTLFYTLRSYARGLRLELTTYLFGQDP
Chain of Prostaglandin G/H synthase 1 (Homo sapiens) (P23219 whole entry): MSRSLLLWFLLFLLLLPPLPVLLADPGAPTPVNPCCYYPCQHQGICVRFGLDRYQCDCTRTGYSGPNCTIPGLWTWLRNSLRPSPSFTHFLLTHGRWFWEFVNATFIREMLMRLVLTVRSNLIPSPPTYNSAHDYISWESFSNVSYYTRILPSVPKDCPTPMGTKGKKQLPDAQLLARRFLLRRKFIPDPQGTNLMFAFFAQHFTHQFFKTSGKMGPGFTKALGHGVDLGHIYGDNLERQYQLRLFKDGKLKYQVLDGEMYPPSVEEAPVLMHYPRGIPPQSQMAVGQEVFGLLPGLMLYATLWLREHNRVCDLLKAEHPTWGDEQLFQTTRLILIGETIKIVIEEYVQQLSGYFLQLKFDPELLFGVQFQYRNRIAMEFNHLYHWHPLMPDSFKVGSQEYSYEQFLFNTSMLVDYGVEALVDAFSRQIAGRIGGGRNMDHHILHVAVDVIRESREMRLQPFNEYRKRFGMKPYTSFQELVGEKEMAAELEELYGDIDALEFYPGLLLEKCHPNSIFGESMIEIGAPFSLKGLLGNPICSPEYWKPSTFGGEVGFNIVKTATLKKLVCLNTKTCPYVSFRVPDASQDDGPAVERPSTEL
Chain of Polyunsaturated fatty acid lipoxygenase ALOX12 (Homo sapiens) (P18054 whole entry): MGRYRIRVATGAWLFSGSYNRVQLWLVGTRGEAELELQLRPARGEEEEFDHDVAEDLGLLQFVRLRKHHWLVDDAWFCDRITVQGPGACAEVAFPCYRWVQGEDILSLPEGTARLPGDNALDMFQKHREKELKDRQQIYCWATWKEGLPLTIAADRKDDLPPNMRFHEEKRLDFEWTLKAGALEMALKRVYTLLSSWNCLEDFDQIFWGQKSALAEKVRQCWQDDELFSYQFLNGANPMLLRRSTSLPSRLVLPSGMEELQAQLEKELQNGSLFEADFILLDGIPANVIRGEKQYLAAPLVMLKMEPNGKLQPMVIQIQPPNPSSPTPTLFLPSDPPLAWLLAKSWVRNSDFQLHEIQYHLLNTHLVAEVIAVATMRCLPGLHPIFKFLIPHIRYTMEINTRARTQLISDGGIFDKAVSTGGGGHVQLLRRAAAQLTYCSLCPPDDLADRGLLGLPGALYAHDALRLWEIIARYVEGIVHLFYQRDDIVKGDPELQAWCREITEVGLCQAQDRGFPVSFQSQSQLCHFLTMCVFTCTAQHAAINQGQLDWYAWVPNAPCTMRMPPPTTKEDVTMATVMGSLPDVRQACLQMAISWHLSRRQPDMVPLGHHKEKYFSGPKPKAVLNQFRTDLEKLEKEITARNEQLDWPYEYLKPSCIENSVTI
Chain of Nociceptin receptor (Homo sapiens) (P41146 whole entry): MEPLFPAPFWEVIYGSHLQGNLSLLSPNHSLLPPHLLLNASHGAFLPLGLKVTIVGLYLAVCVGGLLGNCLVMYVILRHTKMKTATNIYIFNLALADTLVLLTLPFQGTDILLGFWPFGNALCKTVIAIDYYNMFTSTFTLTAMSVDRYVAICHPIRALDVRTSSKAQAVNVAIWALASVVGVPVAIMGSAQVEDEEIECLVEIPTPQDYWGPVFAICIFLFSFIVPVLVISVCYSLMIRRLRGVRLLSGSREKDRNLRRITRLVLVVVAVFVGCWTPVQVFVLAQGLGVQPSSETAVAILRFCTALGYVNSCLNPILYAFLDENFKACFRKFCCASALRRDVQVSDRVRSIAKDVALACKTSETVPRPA
Chain of Prostaglandin D2 receptor (Q13258 whole entry): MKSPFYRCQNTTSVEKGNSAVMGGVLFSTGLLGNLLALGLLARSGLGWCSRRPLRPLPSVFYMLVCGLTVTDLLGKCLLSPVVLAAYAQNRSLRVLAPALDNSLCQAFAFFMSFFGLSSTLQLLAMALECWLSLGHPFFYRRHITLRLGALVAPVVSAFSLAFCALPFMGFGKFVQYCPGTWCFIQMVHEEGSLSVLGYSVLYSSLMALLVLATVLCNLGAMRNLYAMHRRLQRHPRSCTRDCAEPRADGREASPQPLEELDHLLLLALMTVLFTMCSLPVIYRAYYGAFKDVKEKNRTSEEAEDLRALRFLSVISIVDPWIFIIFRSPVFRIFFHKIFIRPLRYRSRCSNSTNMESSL
Chain of Melanocortin receptor 4 (Homo sapiens) (P32245 whole entry): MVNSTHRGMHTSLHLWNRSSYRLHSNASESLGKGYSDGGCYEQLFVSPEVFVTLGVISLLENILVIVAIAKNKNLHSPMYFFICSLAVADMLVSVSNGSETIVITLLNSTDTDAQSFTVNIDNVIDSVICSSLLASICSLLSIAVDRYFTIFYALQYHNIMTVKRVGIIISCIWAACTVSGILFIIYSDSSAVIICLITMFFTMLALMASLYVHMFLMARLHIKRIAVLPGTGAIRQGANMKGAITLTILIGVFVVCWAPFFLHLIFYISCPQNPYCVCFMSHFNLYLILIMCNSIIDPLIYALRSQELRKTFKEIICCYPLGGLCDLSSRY
Chain of D(1A) dopamine receptor (Homo sapiens) (P21728 whole entry): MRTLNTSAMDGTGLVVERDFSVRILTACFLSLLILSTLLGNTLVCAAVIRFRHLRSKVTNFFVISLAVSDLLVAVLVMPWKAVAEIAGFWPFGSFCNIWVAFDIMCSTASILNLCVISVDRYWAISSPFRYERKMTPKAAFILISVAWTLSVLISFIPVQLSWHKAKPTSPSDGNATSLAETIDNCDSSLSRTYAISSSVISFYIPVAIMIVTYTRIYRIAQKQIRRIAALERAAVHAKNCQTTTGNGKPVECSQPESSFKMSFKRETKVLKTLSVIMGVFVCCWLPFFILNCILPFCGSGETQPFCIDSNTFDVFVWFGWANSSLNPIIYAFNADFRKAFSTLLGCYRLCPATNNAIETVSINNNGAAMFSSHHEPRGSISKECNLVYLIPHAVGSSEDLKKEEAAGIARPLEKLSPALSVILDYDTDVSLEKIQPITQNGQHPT
Chain of Substance-P receptor (Homo sapiens) (P25103 whole entry): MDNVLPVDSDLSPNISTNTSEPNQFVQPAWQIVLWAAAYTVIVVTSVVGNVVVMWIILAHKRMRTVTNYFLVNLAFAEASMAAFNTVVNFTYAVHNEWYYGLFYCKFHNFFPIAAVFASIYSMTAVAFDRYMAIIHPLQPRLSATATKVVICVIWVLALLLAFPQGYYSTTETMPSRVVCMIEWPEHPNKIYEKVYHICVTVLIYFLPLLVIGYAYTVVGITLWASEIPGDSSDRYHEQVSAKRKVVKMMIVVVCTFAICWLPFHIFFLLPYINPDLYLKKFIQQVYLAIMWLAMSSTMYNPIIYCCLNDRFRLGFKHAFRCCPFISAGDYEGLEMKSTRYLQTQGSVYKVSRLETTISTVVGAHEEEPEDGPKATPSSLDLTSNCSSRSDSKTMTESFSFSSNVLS
Chain of B2 bradykinin receptor (Homo sapiens) (P30411 whole entry): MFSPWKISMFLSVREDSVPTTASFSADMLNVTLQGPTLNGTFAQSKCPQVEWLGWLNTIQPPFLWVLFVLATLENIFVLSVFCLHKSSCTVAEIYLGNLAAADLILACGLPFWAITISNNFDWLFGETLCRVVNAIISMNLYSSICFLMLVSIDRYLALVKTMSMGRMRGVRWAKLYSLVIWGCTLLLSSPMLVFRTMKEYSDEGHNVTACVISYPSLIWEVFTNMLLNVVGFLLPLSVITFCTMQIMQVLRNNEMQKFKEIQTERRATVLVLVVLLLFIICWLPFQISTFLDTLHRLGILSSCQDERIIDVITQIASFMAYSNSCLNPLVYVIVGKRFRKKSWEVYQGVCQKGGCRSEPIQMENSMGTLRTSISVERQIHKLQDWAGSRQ
Chain of Cholecystokinin receptor type A (Homo sapiens) (P32238 whole entry): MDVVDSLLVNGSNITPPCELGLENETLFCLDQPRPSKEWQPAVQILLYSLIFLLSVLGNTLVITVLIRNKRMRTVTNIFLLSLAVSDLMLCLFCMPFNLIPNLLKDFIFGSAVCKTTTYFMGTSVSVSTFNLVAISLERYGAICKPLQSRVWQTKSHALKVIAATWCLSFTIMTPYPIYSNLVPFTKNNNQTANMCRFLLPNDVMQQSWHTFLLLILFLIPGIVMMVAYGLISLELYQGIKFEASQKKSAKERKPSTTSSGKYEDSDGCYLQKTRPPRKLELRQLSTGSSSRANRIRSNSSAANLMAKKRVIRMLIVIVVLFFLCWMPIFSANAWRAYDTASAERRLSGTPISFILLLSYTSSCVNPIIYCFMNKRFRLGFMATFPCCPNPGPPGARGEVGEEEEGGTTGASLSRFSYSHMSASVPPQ

`O=C(O)COc1ccc(Br)cc1C(=O)c1cnn(-c2ccccc2)c1` showed a half-life [1] of 2.7 h, an inhibition [2] of under 30% and an inhibition [3] of under 20%. For the same molecule, the inhibition (Homo sapiens) was under 30%, the inhibition [4] was under 30% and the inhibition [5] was under 30%. The solubility [6] was 80 µM (≈ 32.1 µg/mL), the inhibition [7] was under 30% and the inhibition [8] was under 20%. For the same molecule, the inhibition [9] was under 30%, the Stability (Rattus norvegicus) was 92% and the inhibition [10] was under 30%. For the same molecule, the inhibition [11] was under 30%, the inhibition [12] was under 30% and the inhibition [13] was under 30%. It also gave an inhibition [14] of under 30%, an inhibition [15] of under 20% and an inhibition [16] of under 30%. The IC50 [17] was over 100 µM, the inhibition [18] was under 30% and the bioavailability [19] was 84%. For the same molecule, the Activity (Mus musculus) was “Active” and the logD [20] was 0.64.

— ChEMBL document CHEMBL1137324, “Novel selective orally active CRTH2 antagonists for allergic inflammation developed from in silico derived hits” (J Med Chem, 2006)
